Reference: patent US7005449B2, “Tolterodine salts” (Pharmacia & Upjohn Company, priority 2002, dated 2006)

Tests used:
[1] = Rotating disk dissolution of tolterodine salts; assay type: physicochemical; details: 25° C.; for Rotating disk dissolution rate (RDDR): pH 6, 0.05 M phosphate buffer
Experimental: Data was collected on the salts. Rotating disk dissolution data was collected at pH 6 in a 0.05 M phosphate buffer at 25° C. on a fiber optic apparatus.

[2] = Rotating disk dissolution of tolterodine salts; assay type: physicochemical; details: extrapolated from carbon chain length trend
[3] = traditional tablet administration; cited from earlier work
[4] = Equilibrium solubility of tolterodine salts (shaking excess salt 24 hours, RP-HPLC)
Experimental: The resultant solution is centrifuged at 5000 rpm for 30 min in a temperature-controlled centrifuge. The supernatant was diluted and analysed for tolterodine by reversed phase high performance liquid chromatography (RP-HPLC).

For `CCCCCCCCCC(=O)O.Cc1ccc(O)c([C@H](CCN(C(C)C)C(C)C)c2ccccc2)c1` [caprate], the “Rotating disk dissolution rate (RDDR)” value [1] was 0.75 μg cm^−2s^−1.

In the case of `CCCCCCCCCCCCCC(=O)O.Cc1ccc(O)c(C(CCN(C(C)C)C(C)C)c2ccccc2)c1` (centres unmarked) [myristic (14 C)], the predicted dissolution rate [2] is reported as “very low”.

For `CCCCCCCCCCCCCCCC(=O)O.Cc1ccc(O)c(C(CCN(C(C)C)C(C)C)c2ccccc2)c1` (centres unmarked) [palmitic (16 C)], the predicted dissolution rate [2] was “very low”.

In the case of `Cc1ccc(O)c(C(CCN(C(C)C)C(C)C)c2ccccc2)c1.O=C(O)c1cc2ccccc2c(Cc2c(O)c(C(=O)O)cc3ccccc23)c1O` [pamoate, tolterodine pamoate], the “Rotating disk dissolution rate (RDDR)” value [1] is reported as under 0.3 μg cm^−2s^−1 and the “Rotating disk dissolution rate (RDDR)” value ([1]; listed as pamoate salt) is reported as “less than the detection limit of the instrument”.

In the case of `Cc1ccc(O)c([C@H](CCN(C(C)C)C(C)C)c2ccccc2)c1.O=C(O)C(O)C(O)C(=O)O` [tartrate, tolterodine tartrate, reference compound], the “rotating disk dissolution rate” value ([1]; pH 6 media) is reported as 14 μg cm^−2sec^−1 and the “Rotating disk dissolution rate (RDDR)” value [1] is reported as 14.0 μg cm^−2s^−1.

In the case of `Cc1ccc(O)c([C@H](CCN(C(C)C)C(C)C)c2ccccc2)c1` [tolterodine, 2-[(1R)-3-(diisopropylamino)-1-phenylpropyl]-4-methylphenol], the “time of peak plasma concentration” value [3] is given as 1 to 2 h.

With benzoate the “Rotating disk dissolution rate (RDDR)” value [1] was 2.1 μg cm^−2s^−1.

In the case of fumarate, the “Rotating disk dissolution rate (RDDR)” value [1] is reported as 2.6 μg cm^−2s^−1.

In the case of laurate, the “Rotating disk dissolution rate (RDDR)” value [1] is reported as 0.38 μg cm^−2s^−1.

For maleate, the “Equilibrium solubility in buffer” value ([4]; 0.1 M phosphate buffer pH 7.4, 24 hours, room temperature) was 4700 µg/mL, the “final pH in buffer” value ([4]; final pH of the buffer solubility sample) was 6.9 and the “final pH in water” value ([4]; final pH of the water solubility sample) was 5.0. For the same molecule, the “Equilibrium solubility in water” value ([4]; water, 24 hours, room temperature) was 1500 µg/mL and the “Rotating disk dissolution rate (RDDR)” value [1] was 4.1 μg cm^−2s^−1.

For tolterodine heptanoate, the “Rotating disk dissolution rate (RDDR)” value [1] was 2.7 μg cm^−2s^−1.
